SMILES strings stand for the structures. Calls of active or inactive are those of the source. The calls are words filed in the database; no cut-off is given here.

In test [1] the target is T1, Polyunsaturated fatty acid 5-lipoxygenase (Homo sapiens) (UniProt P09917).
T1 sequence (whole entry): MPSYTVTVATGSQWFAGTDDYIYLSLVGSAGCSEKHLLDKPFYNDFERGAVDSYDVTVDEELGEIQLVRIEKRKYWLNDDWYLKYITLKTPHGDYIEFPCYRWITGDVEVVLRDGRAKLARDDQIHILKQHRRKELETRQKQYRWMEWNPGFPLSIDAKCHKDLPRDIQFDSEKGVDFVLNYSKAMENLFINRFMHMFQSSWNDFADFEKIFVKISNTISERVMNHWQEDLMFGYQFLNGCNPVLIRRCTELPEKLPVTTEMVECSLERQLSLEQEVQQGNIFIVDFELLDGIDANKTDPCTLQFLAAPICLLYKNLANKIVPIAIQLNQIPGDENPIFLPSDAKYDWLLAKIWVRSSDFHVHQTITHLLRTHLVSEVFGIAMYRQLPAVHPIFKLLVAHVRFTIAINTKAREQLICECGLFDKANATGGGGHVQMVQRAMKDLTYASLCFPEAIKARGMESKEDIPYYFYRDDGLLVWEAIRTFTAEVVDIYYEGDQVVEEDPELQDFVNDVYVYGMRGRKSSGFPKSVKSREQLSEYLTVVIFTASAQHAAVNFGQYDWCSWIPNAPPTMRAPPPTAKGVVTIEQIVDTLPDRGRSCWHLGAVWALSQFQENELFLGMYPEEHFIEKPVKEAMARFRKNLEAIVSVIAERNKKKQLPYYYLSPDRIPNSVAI
Description: Inhibition of human recombinant 5-lipoxygenase assessed as remaining activity at 10 uM.

Test [2] deals with T2, Polyunsaturated fatty acid 5-lipoxygenase (Homo sapiens, UniProt P09917).
T2 sequence (P09917 whole entry): T1 sequence (whole entry)
Description: Inhibition of 5-lipoxygenase in human PMNL.

Test [3] has as its target T3, Prostaglandin E synthase (Homo sapiens) (UniProt O14684).
T3 sequence (whole entry): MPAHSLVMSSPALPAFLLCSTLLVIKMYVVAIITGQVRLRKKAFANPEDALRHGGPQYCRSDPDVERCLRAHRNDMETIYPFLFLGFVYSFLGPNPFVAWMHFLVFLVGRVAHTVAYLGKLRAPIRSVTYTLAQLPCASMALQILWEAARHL
Description: Inhibition of mPGES-1 expressed in IL-1beta-stimulated human A549 cells mitochondrial fraction assessed as remaining activity at 10 uM.

The next test deals with T4, Prostaglandin E synthase (Homo sapiens, UniProt O14684).
T4 sequence (O14684 whole entry): T3 sequence (whole entry)
As to the kind of experiment: Inhibition of mPGES-1 expressed in […]-stimulated human A549 cells mitochondrial fraction assessed as conversion of PGH2 to PGE2. It is filed as cell-based.

Test [4] has as its target T2, Polyunsaturated fatty acid 5-lipoxygenase. As to the kind of experiment: Inhibition of human recombinant 5-lipoxygenase.
The target of test [5] is T1, Polyunsaturated fatty acid 5-lipoxygenase (Homo sapiens). As to the kind of experiment: Inhibition of 5-lipoxygenase in human PMNL assessed as remaining activity at 10 uM.
Test [6] deals with T3, Prostaglandin E synthase (Homo sapiens). Description: Inhibition of mPGES-1 expressed in […]-stimulated human A549 cells mitochondrial fraction assessed as remaining activity at 10 uM. Format: cell-based.

In the case of `O=C(O)C(Sc1nc(Cl)cc(Nc2ccc(F)cc2)n1)c1cccc2ccccc12` (centres undefined), the Activity in test [1] was determined as 67.3%; in test [3], 49.9%. The midpoint of inhibition in test [2], the IC50, lay at 3100 nM.
Take `O=C(O)C(Sc1nc(Cl)cc(NCc2ccc(-c3ccccc3)cc2)n1)c1cccc2ccccc12` (centres undefined): the IC50 in test [2] stood at 700 nM; on Prostaglandin E synthase it was 880 nM; in test [4], 3000 nM.
Turning to `O=C(O)C(Sc1nc(Cl)cc(Nc2ccc(C3CCCCC3)cc2)n1)c1cccc2ccccc12` (centres undefined), the figures for the half-maximal inhibitory concentration (IC50) (in test [2]; on Prostaglandin E synthase; in test [4]) were 400 nM, 1450 nM and 2000 nM, respectively.
In the case of `O=C(O)C(Sc1nc(Cl)cc(Nc2ccc(Cc3ccccc3)cc2)n1)c1cccc2ccccc12` (centres undefined), the results for the half-inhibitory concentration (IC50) (in test [2]; at Prostaglandin E synthase; in test [4]) were 300 nM, 1500 nM and 2200 nM, respectively.
With `O=C(O)C(Sc1nc(Cl)cc(Nc2ccc3c(c2)CCC3)n1)c1cccc2ccccc12` (centres undefined), the IC50 in test [2] came to 500 nM; in test [4] it was 4200 nM. The Activity in test [3] was 36.7%.
`O=C(O)C(Sc1nc(Cl)cc(Nc2ccc3ncccc3c2)n1)c1cccc2ccccc12` (centres undefined): the values for the Activity in test [1] and in test [3] were 19% and 49.1%, respectively. Further, the IC50 in test [2] was found to be 4400 nM.
As for `N#Cc1ccc(-c2ccc(Nc3cc(Cl)nc(SC(C(=O)O)c4cccc5ccccc45)n3)cc2)cc1` (centres undefined), the results for the half-inhibitory concentration (IC50) (in test [2]; at Prostaglandin E synthase; in test [4]) were 170 nM, 1600 nM and 2300 nM, respectively.
As for `O=C(O)C(Sc1nc(Cl)cc(Nc2ccc(Cl)cc2)n1)c1cccc2ccccc12` (centres undefined), the IC50 in test [2] amounted to 800 nM; on Prostaglandin E synthase, 5100 nM; in test [4], 8900 nM.
On the same counts, the results for `O=C(O)C(Sc1nc(Cl)cc(Nc2ccc3ccccc3c2)n1)c1cccc2ccccc12` (centres undefined) are 500 nM, 1900 nM and 2900 nM.
On to `Cc1cccc(Nc2cc(Cl)nc(SCC(=O)O)n2)c1C`, for which the result in test [1], in test [5] and in test [3] was inactive.
Take `O=C(O)C(Sc1nc(Cl)cc(Nc2ccc(-c3ccccc3)cc2)n1)c1cccc2ccccc12` (centres undefined): the IC50 in test [2] worked out at 100 nM; on Prostaglandin E synthase, 940 nM; in test [4], 2300 nM.
For `O=C(O)C(Sc1nc(Cl)cc(NCCc2ccccc2)n1)c1cccc2ccccc12` (centres undefined), the Activity was 44.2% in test [1] and 42.3% in test [3]. Also, in test [2], the IC50 stood at 2500 nM.
As to `O=C(O)C(Sc1nc(Cl)cc(Nc2cccc(Cl)c2)n1)c1cccc2ccccc12` (centres undefined), the IC50 was 700 nM in test [2] and 5000 nM in test [4]. In addition, the Activity in test [3] stood at 45.5%.
Take `O=C(O)C(Sc1nc(Cl)cc(Nc2ccc3c(c2)Cc2ccccc2-3)n1)c1cccc2ccccc12` (centres undefined): the IC50 in test [2] was 240 nM; on Prostaglandin E synthase, 1550 nM; in test [4], 1600 nM.
As to `O=C(O)C(Sc1nc(Cl)cc(Nc2ccc(Oc3ccccc3)cc2)n1)c1cccc2ccccc12` (centres undefined), the IC50 in test [2] was 400 nM; on Prostaglandin E synthase, 940 nM; in test [4] it was 3100 nM.
Turning to `O=C(O)C(Sc1nc(Cl)cc(Nc2cccc(-c3ccccc3)c2)n1)c1cccc2ccccc12` (centres undefined), the IC50 came to 500 nM in test [2], 1900 nM on Prostaglandin E synthase and 5000 nM in test [4].
On to `CC(C)CNc1cc(Cl)nc(SC(C(=O)O)c2cccc3ccccc23)n1` (centres undefined), for which the figures for the Activity in test [1] and in test [6] were 54.8% and 65.3%, respectively. The same compound came in with an IC50 in test [2] of 2500 nM.
As for `CC(C)(C)c1cc(Nc2cc(Cl)nc(SC(C(=O)O)c3cccc4ccccc34)n2)cc(C(C)(C)C)c1` (centres undefined), the IC50 was determined as 260 nM in test [2], 900 nM at Prostaglandin E synthase and 1900 nM in test [4].
Regarding `CCCCNc1cc(Cl)nc(SC(C(=O)O)c2cccc3ccccc23)n1` (centres undefined), the Activity in test [1] amounted to 70.6%; in test [3], 90.2%. Further, in test [2], the IC50 amounted to 2400 nM.
For `O=C(O)C(Sc1nc(Cl)cc(NCCCc2ccccc2)n1)c1cccc2ccccc12` (centres undefined), in test [1], the Activity was found to be 68.9%. Also, the 50% inhibitory concentration (IC50) in test [2] amounted to 1800 nM; on Prostaglandin E synthase, 6100 nM.
Consider `O=C(Nc1ccc(Nc2cc(Cl)nc(SC(C(=O)O)c3cccc4ccccc34)n2)cc1)c1ccccc1` (centres undefined), for which the IC50 in test [2] was found to be 600 nM; in test [4], 5200 nM. Further, the Activity in test [3] worked out at 38.8%.
On the same counts, the results for `CC(C)c1ccc(Nc2cc(Cl)nc(SC(C(=O)O)c3cccc4ccccc34)n2)cc1` (centres undefined) are 260 nM, 5800 nM and 35.8%.
On to `Cc1ccc(Nc2cc(Cl)nc(SC(C(=O)O)c3cccc4ccccc34)n2)cc1C` (centres undefined), for which the IC50 in test [2] turned out to be 700 nM; at Prostaglandin E synthase, 5700 nM; in test [4] it was 8500 nM.

By IC50 is commonly meant the concentration at which inhibition is half-maximal.
